Read-outs that look alike come from different tables or passages of the source.
Experiments:
[1] = target: T1, BRD4 Bromodomain 2 (BRD4 BD2) (Homo sapiens, UniProt O60885); assay: AlphaScreen binding assay, BRD4 BD2; settings: His-tagged BRD4 BD2 100 nM, biotinylated H4 (1-21) K5/8/12/16 tetra-acetylated peptide 100 nM, compounds listed under IC50 range headings
T1 construct: 333-460 were cloned, expressed, and purified to homogeneity
Method in brief: (§1)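 An AlphaScreen competition format was used with His-BRD4 BD1 or BD2 and biotin-H4 K5/8/12/16-acetyl peptide, each at matched final levels of 50 nM (BD1) or 100 nM (BD2). Incubation in HEPES/NaCl buffer with 0.1% BSA and 0.01% Triton X-100 ran ≥1 h before IC50 determination.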

[2] = target: T2, BRD4 Bromodomain 1 (BRD4 BD1) (Homo sapiens, UniProt O60885); assay: AlphaScreen binding assay, BRD4 BD1; settings: His-tagged BRD4 BD1 50 nM, biotinylated H4 (1-21) K5/8/12/16 tetra-acetylated peptide 50 nM, compounds listed under IC50 range headings
T2 construct: 44-168 and BRD4 BD2
Method in brief: as §1

[3] = test system: acute myelocytic leukemia (AML) cell line MV4-11; assay: Oncology cell growth assay (3-day proliferation, CellTiter-Glo); format: cell-based; settings: Homo sapiens, MV4-11 cells, 3000 cells/well, compounds listed under IC50 range headings, read-out: MV411 IC50 (gIC50, inhibition of proliferation)
Method in brief: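 A 3-day proliferation test used MV4-11 cells seeded at 3000 per well with eight compound concentrations (10 μM top, 3-fold dilution) at 37° C in 5% CO2. CellTiter-Glo luminescence defined viable cell signal. A four-parameter logistic curve against DMSO and background wells gave the gIC50.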

SMILES	IC50 [1]	IC50 [2]	IC50 ([3]; MV4-11, 72 h)	IC50 ([3]; 72 hours)
C[C@H]1CCc2c(ccc(-c3cnn(C4CNC4)c3)c2Oc2cccc(F)c2F)N1C(=O)C1CC1 [I-268, (S)-(6-(1-(azetidin-3-yl)-1H-pyrazol-4-yl)-5-(2,3-difluorophenoxy)-2-methyl-3,4-dihydroquinolin-1(2H)-yl)(cyclopropyl)methanone]	< 50 nM	100 to 1000 nM	< 500 nM	–
COC(=O)N1c2ccc(-c3cnn(C4CNC4)c3)c(Oc3cccc(F)c3F)c2CC[C@@H]1C [I-270, (S)-methyl 6-(1-(azetidin-3-yl)-1H-pyrazol-4-yl)-5-(2,3-difluorophenoxy)-2-methyl-3,4-dihydroquinoline-1(2H)-carboxylate]	< 50 nM	100 to 1000 nM	< 500 nM	–
COC(=O)N1c2ccc(-c3cnn(C4CN(C)C4)c3)c(Oc3ccc(F)cc3)c2CC[C@@H]1C [I-282, Methyl (S)-5-(4-fluorophenoxy)-2-methyl-6-(1-(1-methylazetidin-3-yl)-1H-pyrazol-4-yl)-3,4-dihydroquinoline-1(2H)-carboxylate]	< 50 nM	100 to 1000 nM	< 500 nM	–
COC(=O)N1c2ccc(-c3cnn(C4CCN(C)CC4)c3)c(Oc3ccc(F)cc3)c2CC[C@@H]1C [I-283, Methyl (S)-5-(4-fluorophenoxy)-2-methyl-6-(1-(1-methylpiperidin-4-yl)-1H-pyrazol-4-yl)-3,4-dihydroquinoline-1(2H)-carboxylate]	< 50 nM	100 to 1000 nM	< 500 nM	–
COC(=O)N1c2ccc(-c3cnn(C4CN(C)C4)c3)c(OC3CCC3)c2CC[C@@H]1C [I-284, Methyl (S)-5-cyclobutoxy-2-methyl-6-(1-(1-methylazetidin-3-yl)-1H-pyrazol-4-yl)-3,4-dihydroquinoline-1(2H)-carboxylate]	50 to 500 nM	1000 to 10000 nM	500 to 1000 nM	–
COC(=O)N1c2ccc(-c3cnn(C4CCN(C)CC4)c3)c(OC3CCC3)c2CC[C@@H]1C [I-285, Methyl (S)-5-cyclobutoxy-2-methyl-6-(1-(1-methylpiperidin-4-yl)-1H-pyrazol-4-yl)-3,4-dihydroquinoline-1(2H)-carboxylate]	< 50 nM	100 to 1000 nM	< 500 nM	–
CC(=O)N1c2ccc(-c3cnn(C4CC4)c3)c(Oc3ncccc3C)c2CC[C@@H]1C [I-286, (S)-1-(6-(1-cyclopropyl-1H-pyrazol-4-yl)-2-methyl-5-(3-methylpyridin-2-yloxy)-3,4-dihydroquinolin-1 (2H)-yl)ethanone]	50 to 500 nM	1000 to 10000 nM	< 500 nM	–
CC(=O)N1c2ccc(-c3cnn(C4CC4)c3)c(Oc3ccc(C)cn3)c2CC[C@@H]1C [I-287, (S)-1-(6-(1-cyclopropyl-1H-pyrazol-4-yl)-2-methyl-5-(5-methylpyridin-2-yloxy)-3,4-dihydroquinolin-1(2H)-yl)ethanone]	< 50 nM	100 to 1000 nM	< 500 nM	–
CC(=O)N1c2ccc(-c3cnn(C4CC4)c3)c(Oc3ccc(Cl)cn3)c2CC[C@@H]1C [I-288, (S)-1-(5-(5-chloropyridin-2-yloxy)-6-(1-cyclopropyl-1H-pyrazol-4-yl)-2-methyl-3,4-dihydroquinolin-1(2H)-yl)ethanone]	< 50 nM	100 to 1000 nM	< 500 nM	–
CC(=O)N1c2ccc(-c3cnn(C4CC4)c3)c(Oc3ncc4[nH]cnc4n3)c2CC[C@@H]1C [I-289, (S)-1-(5-(7H-purin-2-yloxy)-6-(1-cyclopropyl-1H-pyrazol-4-yl)-2-methyl-3,4-dihydroquinolin-1(2H)-yl)ethanone]	50 to 500 nM	1000 to 10000 nM	500 to 1000 nM	–
C/C=C/n1c(Oc2c(-c3cnn(C4CC4)c3)ccc3c2CC[C@H](C)N3C(C)=O)nc2ccccc21 [I-351, (S,E)-1-(6-(1-cyclopropyl-1H-pyrazol-4-yl)-2-methyl-5-(1-(prop-1-enyl)-1H-benzo[d]imidazol-2-yloxy)-3,4-dihydroquinolin-1(2H)-yl)ethanone]	< 50 nM	1000 to 10000 nM	< 500 nM	–
CCCOc1c(C2CCNCC2)ccc2c1CC[C@H](C)N2C(C)=O [I-353, (S)-1-(2-methyl-6-(piperidin-4-yl)-5-propoxy-3,4-dihydroquinolin-1(2H)-yl)ethan-1-one]	≥ 500 nM	≥ 10000 nM	> 1000 nM	–
CCCOc1c(C2CCN(C(C)=O)CC2)ccc2c1CC[C@H](C)N2C(C)=O [I-354, (S)-1-(4-(1-acetyl-2-methyl-5-propoxy-1,2,3,4-tetrahydroquinolin-6-yl)piperidin-1-yl)ethan-1-one]	≥ 500 nM	≥ 10000 nM	> 1000 nM	–
CCCOc1c(C2CCN(S(C)(=O)=O)CC2)ccc2c1CC[C@H](C)N2C(C)=O [I-355, (S)-1-(2-methyl-6-(1-(methylsulfonyl)piperidin-4-yl)-5-propoxy-3,4-dihydroquinolin-1 (2H)-yl)ethan-1-one]	≥ 500 nM	≥ 10000 nM	> 1000 nM	–
CCCOc1c(C2CCN(C(=O)NCC)CC2)ccc2c1CC[C@H](C)N2C(C)=O [I-356, (S)-4-(1-acetyl-2-methyl-5-propoxy-1,2,3,4-tetrahydroquinolin-6-yl)-N-ethylpiperidine-1-carboxamide]	50 to 500 nM	≥ 10000 nM	> 1000 nM	–
CCCOc1c(C2CCN(C(=O)OC)CC2)ccc2c1CC[C@H](C)N2C(C)=O [I-357, methyl (S)-4-(1-acetyl-2-methyl-5-propoxy-1,2,3,4-tetrahydroquinolin-6-yl)piperidine-1-carboxylate]	≥ 500 nM	≥ 10000 nM	–	> 1000 nM
CCCOc1c(C2CCN(CC)CC2)ccc2c1CC[C@H](C)N2C(C)=O [I-358, (S)-1-(6-(1-ethylpiperidin-4-yl)-2-methyl-5-propoxy-3,4-dihydroquinolin-1(2H)-yl)ethan-1-one]	≥ 500 nM	≥ 10000 nM	> 1000 nM	–
CC(=O)N1c2ccc(-c3cnn(C4CCNCC4)c3)c(Nc3ccccc3)c2CC[C@@H]1C [I-359, (S)-1-(2-methyl-5-(phenylamino)-6-(1-(piperidin-4-yl)-1H-pyrazol-4-yl)-3,4-dihydroquinolin-1(2H)-yl)ethan-1-one]	50 to 500 nM	1000 to 10000 nM	–	< 500 nM
COC(=O)N1c2ccc(-c3cnn([C@@H]4CCNC[C@@H]4F)c3)c(OC3CCC3)c2CC[C@@H]1C [I-361, methyl (S)-5-cyclobutoxy-6-(1-((3S,4R)-3-fluoropiperidin-4-yl)-1H-pyrazol-4-yl)-2-methyl-3,4-dihydroquinoline-1(2H)-carboxylate]	< 50 nM	< 100 nM	< 500 nM	–
COC(=O)N1c2ccc(-c3cnn([C@H]4CCNC[C@H]4F)c3)c(OC3CCC3)c2CC[C@@H]1C [I-362, methyl (2S)-5-cyclobutoxy-6-{1-[(3R,4S)-3-fluoropiperidin-4-yl]-1H-pyrazol-4-yl}-2-methyl-1,2,3,4-tetrahydroquinoline-1-carboxylate]	< 50 nM	100 to 1000 nM	< 500 nM	–
COC(=O)N1c2ccc(-c3cnn([C@H]4CCNC[C@@H]4F)c3)c(OC3CCC3)c2CC[C@@H]1C [I-363, methyl (2S)-5-cyclobutoxy-6-{1-[(3S,4S)-3-fluoropiperidin-4-yl]-1H-pyrazol-4-yl}-2-methyl-1,2,3,4-tetrahydroquinoline-1-carboxylate]	< 50 nM	100 to 1000 nM	< 500 nM	–

From US10611750B2, “Tetrahydroquinoline compositions as bet bromodomain inhibitors” (FORMA Therapeutics, Inc., priority 2013, dated 2020)
